Key:
[1] = tested on: MDA-MB-468 (triple negative breast cancer); experiment: BrdU incorporation into DNA in MDA-MB-468 cells; format: cell-based; settings: Homo sapiens, mean of multiple measurements
From the text: Upon adding bromodeoxyuridine (BrdU) to dividing cells, Thymidine is replaced by its analogue, BrdU, and BrdU is incorporated into DNA. Thus, BrdU incorporated into DNA characterizes the intensity of DNA replication and ongoing S phase of the cell cycle. Reduced incorporation of bromodeoxyuridine into DNA under the action of the compounds characterizes a slowdown in the cell cycle and DNA replication.
The ability of the CDK7 inhibitors according to the present invention to inhibit the incorporation of BrdU into DNA was evaluated in a cell test on continuous cell cultures: MDA-MB-468 (triple negative breast cancer, ATCC® HTB-132™) using a BrdU detection kit (Roche, order no. 11 669 915 001)). The cells were grown in DMEM medium (PanEco, order no. C330π). The basal growth medium was enriched with L-glutamine at a concentration of 2 mM (PanEco, order no. Φ032) and 10% fetal bovine serum (Gibco, order no. 16140-071). MDA-MB-468 adherent cells were detached from plastic with a solution of trypsin-EDTA (PanEco, order no. Π039π), the solution was then inactivated by a DMEM complete medium, centrifuged at 1000 RPM (Eppendorf, 5804 R), a suspension of cells was prepared in a DMEM complete medium, introduced into 96-well culture plates (Corning Inc, order no. 3599) at 4×10^3 cells in 75 μl of medium per well. Test compounds were dissolved in DMSO and diluted with a DMEM complete medium to a final concentration ranging from 0.5 μM to 2 μM. Serum-free growth medium was removed from plate wells, and solutions comprising diluted compounds in the volume of 100 μl in basal growth medium were added. Candidates were introduced into the plate wells with cells in triplicates (the final concentration of DMSO was no more than 1%) and incubated at 37° C. in an incubator with 5% CO2 for 24 hours. Following incubation, 10 μl of solution of BrdU at a concentration of 10 μM was added to wells, the contents of the plates were agitated on an orbital shaker (Biosan, Latvia), and incubated for additional 72 hours at 37° C. in an incubator with 5% CO2. Incorporated BrdU was then detected according to the guidelines of the kit manufacturer. […] 100 μl of substrate solution was introduced into each analyzed well and incubated for 3 minutes at room temperature (+15-25° C.) on an orbital shaker (Biosan, Latvia) and for another 5-7 minutes without stirring.
The amount of incorporated BrdU was detected on the Infinite M200Pro microplate spectrophotometer (Tecan Group Ltd, Switzerland) by measuring the luminescent signal. IC50 value was calculated using the Magellan software (Tecan Group Ltd, Switzerland) by approximating experimental points by four-parameter model with the optimization by Levenberg-Marquardt.

[2] = Blood-brain barrier permeability: PK in mice brain homogenate following oral administration; format: in vivo, CD-1 mice; settings: male, CD-1, mouse, dose 10 mg/kg; for Kp: brain homogenate / plasma, mice, read-out: AUCbrain/AUCplasma; for AUC(0-t) / Cmax / Tmax / half-life: mice brain homogenate; for half-life: read-out: t½ (converted)
Description: The ability of substances to penetrate the blood-brain barrier and enter the central nervous system (mouse brain) was evaluated by the ratio of their areas under pharmacokinetic curves in […] and blood plasma following oral administration, characterizing tissue bioavailability to the […], and expressed as the AUCbrain/AUCplasma coefficient.
Pharmacokinetic studies of the compounds were carried out on CD-1 mice, males, aged about 8 weeks, weighing 16-29 g. Animals were subjected a single oral (PO) administration (intragastrically) at a dose of 10 mg/kg in a formulation in the form of a 0.2% solution of hydroxypropyl methylcellulose (HPMC) in a 5% aqueous solution of glucose.
21 animals were used for each substance. All mice were weighed and randomized before dosing.
3 animals were used for each time point. Biomaterials were collected from each animal at one time point. At least 12 h before the start of the experiment, the animals were deprived of food while maintaining free access to water. Blood and brain samples were collected 0.5, 2, 4, 6, 8, 12 and 16 h after administration of the substance.
All manipulations were carried out analogously to Example 54.
Perfusion of mice brains was carried out with saline solution via the vascular system. To this end, the chest was opened, the right atrium was incised with microsurgical scissors, and saline cooled to 4° C. was administered using a 10-ml syringe into the left ventricle until the liver turned white. After washing, the skull was opened and the brain removed, it was weighed and transferred to labeled 5 ml tubes.
A 4-fold volume of water was added to the brain suspension and homogenized using a homogenizer (Omni Bead Ruptor 24) 2 times for 45 seconds. Analogously, the intact mice brain homogenate was prepared, which was then used to prepare calibration samples and QC samples. The calibration curve was generated by analyzing brain homogenate samples with supplementations of known amounts of the standard of the compound being determined.
Samples were precipitated with cooled acetonitrile at 1:4 ratio, containing the internal standard tolbutamide (Sigma, T0891) at a concentration of 50 ng/ml. Samples were stirred on a vortex mixer (G560E, Scientific Industries) for 10 seconds and kept at 4° C. for 15 minutes to precipitate proteins, then centrifuged (5417R centrifuge, Eppendorf) for 10 minutes at 1500 g. […] of supernatants were collected and transferred to corresponding wells of a 96-well plate for HPLC-MS/MS analysis. Quantitative determination of test compounds in brain homogenates was carried out analogously to the procedure described in Example 54. Lower limit of quantitative determination of test compounds in brain homogenate was 0.3 ng/ml.
Pharmacokinetic analysis of data was performed analogously to the procedure described in Example 54.
In addition to main PK parameters, the ratio of concentration in the brain and plasma at the studied time points (AUCbrain/AUCplasma) was calculated to assess bioavailability in the brain (permeability through the blood-brain barrier).

Structure (SMILES) | IC50 [1] [nM] | Kp [2] | AUC(0-t) [2] [ng·h/mL] | Cmax [2] [ng/mL] | Tmax [2] [h] | half-life [2] [h]
CN1CCCc2c(-c3nc(N[C@H]4CCC(C)(C)NC4)ncc3C(F)(F)F)c[nH]c2C1=O [CDK7_1187, 3-(2-{[(3S)-6,6-dimethylpiperidin-3-yl]amino}-5-(trifluoromethyl)py-rimidin-4-yl)-7-methyl-1H,4H,5H,6H,7H, 8H-pyrrolo[2,3-c]azepin-8-one] | 14 |  |  |  |  | 
CC1(C)CC[C@H](Nc2ncc(C(F)(F)F)c(-c3c[nH]c4c3CCCN(C3CC3)C4=O)n2)CN1 [CDK7_1225, 7-cyclopropyl-3-(2-{[(3S)-6,6-dimethylpiperidin-3-yl]amino}-5-(trifluoromethyl)py-rimidin-4-yl)-1H,4H,5H,6H,7H, 8H-pyrrolo[2,3-c]azepin-8-one] | 24 | 0.165 | 855 | 93.8 | 6 | 2.33
CC(C)N1CCCc2c(-c3nc(N[C@H]4CCC(C)(C)NC4)ncc3C(F)(F)F)c[nH]c2C1=O [CDK7_1229, 3-(2-{[(3S)-6,6-dimethylpiperidin-3-yl]amino}-5-(trifluoromethyl)py-rimidin-4-yl)-7-(propan-2-yl)-1H,4H,5H,6H,7H, 8H-pyrrolo[2,3-c]azepin-8-one] | 28 | 0.182 | 909 | 136 | 0.5 | 2.25
O=C1c2[nH]cc(-c3nc(N[C@H]4CCC5(CC5)NC4)ncc3C(F)(F)F)c2CCCN1C1CC1 [CDK7_1276, 3-(2-{[(6S)-4-azaspiro[2.5]octan-6-yl]amino}-5-(trifluoromethyl)py-rimidin-4-yl)-7-cyclopropyl-1H,4H,5H,6H,7H, 8H-pyrrolo[2,3-c]azepin-8-one] | 2 | 0.243 | 1940 | 335 | 0.5 | 1.99
CC(C)N1CCCc2c(-c3nc(N[C@H]4CCC5(CC5)NC4)ncc3C(F)(F)F)c[nH]c2C1=O [CDK7_1277, 3-(2-{[(6S)-4-azaspiro[2.5]octan-6-yl]amino}-5-(trifluoromethyl)py-rimidin-4-yl)-7-(propan-2-yl)-1H,4H,5H,6H,7H, 8H-pyrrolo[2,3-c]azepin-8-one] |  | 0.302 | 1750 | 226 | 2 | 2.76
